Measured values: article PMC10208570, “Peptidomimetic antibiotics disrupt the lipopolysaccharide transport bridge of drug-resistant Enterobacteriaceae” (Science Advances, 2023)
Values after ≈ are worked out from the molar mass of the structure shown. Read-outs that look alike come from different tables or passages of the source. Where a SMILES comes first, the peptide text is derived from it. Bridges are numbered along the chain shown (N, C = ends). [ ]: non-standard residue; d: D form. Pen = CC(C)(S)[C@H](N)C(=O)O; dDab = NCC[C@@H](N)C(=O)O; Dab = NCC[C@H](N)C(=O)O

How the values were obtained:
[1] = tested on: E. coli ATCC 25922 LptA Q62L mutant; test: microbe, parasite or virus in culture; conditions: for MIC: Escherichia coli
Description: (§1) MIC assays [Clinical and Laboratory Standards Institute (CLSI) methodology] and serial passage studies were performed as described by Luther et al. ([6]). […] Resistant mutants were isolated, and their MIC values were determined and sent to Microbes NG (Birmingham, United Kingdom) for whole-genome sequencing and bioinformatic analysis.

[2] = tested on: Klebsiella pneumoniae NCTC 13443 LptA I36S mutant; test: microbe, parasite or virus in culture; conditions: Klebsiella pneumoniae, NCTC13443, read-out: MIC Klebsiella pneumoniae NCTC 13443 LptA I36S (2x)
Description: as §1

[3] = tested on: K. pneumoniae NCTC 13443 (NDM-1) (parent / WT); test: microbe, parasite or virus in culture; conditions: for MIC: Klebsiella pneumoniae
Description: as §1

[4] = tested on: Klebsiella pneumoniae ATCC 43816 LapB mutant; test: microbe, parasite or virus in culture; conditions: Klebsiella pneumoniae, ATCC43816, read-out: MIC Klebsiella pneumoniae ATCC 43816 LapB (1x)
Description: as §1

[5] = tested on: E. coli ATCC 25922 (parent / WT); test: microbe, parasite or virus in culture; conditions: for MIC: Escherichia coli
Description: as §1

[6] = tested on: Klebsiella pneumoniae ATCC 43816 LptA L116Q mutant; test: microbe, parasite or virus in culture; conditions: Klebsiella pneumoniae, ATCC43816, read-out: MIC Klebsiella pneumoniae ATCC 43816 LptA L116Q (1x)
Description: as §1

[7] = tested on: Escherichia coli ATCC 25922 KdsD mutant; test: microbe, parasite or virus in culture; conditions: Escherichia coli, ATCC25922, read-out: MIC Escherichia coli ATCC 25922 KdsD (2x)
Description: as §1

[8] = tested on: K. pneumoniae ATCC 43816 (parent / WT); test: microbe, parasite or virus in culture; conditions: for MIC: Klebsiella pneumoniae
Description: as §1

[9] = tested on: Klebsiella pneumoniae ATCC 43816 LptA I36N mutant; test: microbe, parasite or virus in culture; conditions: Klebsiella pneumoniae, ATCC43816, read-out: MIC Klebsiella pneumoniae ATCC 43816 LptA I36N (1x)
Description: as §1

[10] = tested on: K. pneumoniae ATCC 43816 LptA Q62L mutant; test: microbe, parasite or virus in culture; conditions: Klebsiella pneumoniae
Description: as §1

[11] = tested on: Klebsiella pneumoniae NCTC 13443 LpxC, LpxD mutant; test: microbe, parasite or virus in culture; conditions: Klebsiella pneumoniae, NCTC13443, read-out: MIC Klebsiella pneumoniae NCTC 13443 LpxC, LpxD (1x)
Description: as §1

[12] = tested on: Klebsiella pneumoniae ATCC 43816 PglJ, PhnJ, ThiH mutant; test: microbe, parasite or virus in culture; conditions: Klebsiella pneumoniae, ATCC43816, read-out: MIC Klebsiella pneumoniae ATCC 43816 PglJ, PhnJ, ThiH (1x)
Description: as §1

[13] = tested on: Klebsiella pneumoniae ATCC 43816 LptA I36S mutant; test: microbe, parasite or virus in culture; conditions: Klebsiella pneumoniae, ATCC43816, read-out: MIC Klebsiella pneumoniae ATCC 43816 LptA I36S (1x)
Description: as §1

[14] = tested on: Escherichia coli ATCC 25922 LptA E84D mutant; test: microbe, parasite or virus in culture; conditions: Escherichia coli, ATCC25922, read-out: MIC Escherichia coli ATCC 25922 LptA E84D (1x)
Description: as §1

[15] = tested on: Klebsiella pneumoniae NCTC 13443 YejM mutant; test: microbe, parasite or virus in culture; conditions: Klebsiella pneumoniae, NCTC13443, read-out: MIC Klebsiella pneumoniae NCTC 13443 YejM (1x)
Description: as §1

[16] = tested on: K. pneumoniae NCTC 13443 (NDM-1) LptA Q62L mutant; test: microbe, parasite or virus in culture; conditions: for MIC: Klebsiella pneumoniae
Description: as §1

in vitro = format: cell-based; conditions: human
Description: The cytotoxicity of compounds was determined by determining the number of viable cells using the Sigma Cell Counting Kit-8 (WST-8). HeLa cells were incubated at 37°C and 5% CO2 for 24 hours, after which the medium was replaced with fresh medium containing dilutions of compounds. […]

human red blood cells = test: Haemolysis; format: cell-based; conditions: PBS-washed human red blood cells; 1 h at 200 mg/liter, 37°C; OD 540 nm; versus 100% lysis control 2.5% Triton X-100; biological replicates
Description: To test their hemolytic potential, compounds were incubated in the presence of phosphate-buffered saline (PBS)–washed human red blood cells. After 1-hour incubation at 200 mg/liter and 37°C, the samples were centrifuged (3220g), the supernatants were diluted in Dulbecco’s PBS, and optical density at 540 nm was determined. The hemolysis induced by the compound was calculated versus a 100% lysis control prepared with 2.5% Triton X-100 (table S4A).

LptAmQ62L = target: T1, LptAmQ62L (Escherichia coli, UniProt P0ADV1, Q62L); test: biochemical; format: binding, E. coli
T1 construct: His6-GB1 (N, cleaved yes); made in house; host or cells: E. coli BL21 (DE3)
Description: (§2) Protein stocks were purified and concentrated in buffer 1 [50 mM Na-Pi (pH 7) and 150 mM NaCl] and, if necessary, diluted to desired concentrations using buffer 2 [50 mM Na-Pi (pH 7), 150 mM NaCl, and 0.05% Tween 20]. Peptide stocks and fluorescently labeled peptide stocks were made in buffer 2. Every serial dilution consisted of 24 wells, the first well with the highest concentrate and the last well (well 24) with the lowest. First, 50 μl of buffer 2 was added to the wells 2 to 24 of each serial dilution. Then, 100 μl of concentrated unlabeled peptide/protein in their respective buffers was added to the first well. Fifty microliters were taken from the first well and added to the second well for a 1:1 serial dilution and continued for the 24 wells. […] Plates were covered with adhesive seals and left to incubate overnight at 4°C before FP measurements the next day. Anisotropy was measured using the Tecan Safire2 plate reader using a 10-nm bandwidth and setting the excitation and emission wavelengths to 635 and 670 nm, respectively. The G-factor (G) was also determined empirically as 1.094 for the instrument and included in all the anisotropy calculations.
(§3) For the indirect binding assays, r was calculated in the same manner as the direct binding assays. […] The control was subtracted from r to yield r′. Data were fit to a sigmoidal interpolation model on GraphPad Prism 9, and an IC50 was generated for each unlabeled peptide or protein measured.

LptAm = target: T2, LptAm (Escherichia coli, UniProt P0ADV1); test: biochemical; format: binding, E. coli
T2 construct: His6-GB1 (N, cleaved yes); made in house; host or cells: E. coli BL21 (DE3)
Description: as §2, §3

[17] = tested on: K. pneumoniae 968733 (CST-R); test: MIC assay (CLSI); format: cell-based, Klebsiella pneumoniae; conditions: Klebsiella pneumoniae, read-out: MIC K. pneumoniae 968733 (CST-R) Parent
Description: as §1

[18] = CLSI method, clone harboring LptA Q62L

T2 sequence (P0ADV1 28-159): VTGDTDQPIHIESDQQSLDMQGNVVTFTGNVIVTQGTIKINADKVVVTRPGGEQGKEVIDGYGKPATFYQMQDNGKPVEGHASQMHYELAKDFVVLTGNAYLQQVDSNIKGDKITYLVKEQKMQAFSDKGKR
T1 sequence (P0ADV1 28-159 Q62L): as the sequence (P0ADV1 28-159) above, with Q35L counted along it

Compound CO[C@@H]1[C@@H](OC(N)=O)[C@@H](O)[C@H](Oc2ccc3c(O)c(NC(=O)c4ccc(O)c(CC=C(C)C)c4)c(=O)oc3c2C)OC1(C)C [Novobiocin] has an MIC ([1]; ATCC25922, read-out: MIC Escherichia coli ATCC 25922 LptA Q62L (7x)) of 64 mg/L (≈ 104 µM), an MIC [2] of over 64 mg/L and an MIC ([3]; NCTC13443, read-out: MIC Klebsiella pneumoniae NCTC 13443 WT) of over 64 mg/L. For the same compound, the MIC [4] was 32 mg/L (≈ 52.2 µM), the MIC ([5]; ATCC25922, read-out: MIC Escherichia coli ATCC 25922 WT) was over 64 mg/L and the MIC [6] was over 64 mg/L. The MIC [7] was 64 mg/L (≈ 104 µM), the MIC ([8]; ATCC43816, read-out: MIC Klebsiella pneumoniae ATCC 43816 WT) was over 64 mg/L and the MIC [9] was over 64 mg/L. For the same compound, the MIC ([10]; ATCC43816, read-out: MIC Klebsiella pneumoniae ATCC 43816 LptA Q62L (4x)) was over 64 mg/L, the MIC [11] was over 64 mg/L and the MIC [12] was 32 mg/L (≈ 52.2 µM). For the same compound, the MIC [13] was over 64 mg/L, the MIC [14] was over 64 mg/L and the MIC [15] was over 64 mg/L. The MIC ([16]; NCTC13443, read-out: MIC Klebsiella pneumoniae NCTC 13443 LptA Q62L (5x)) was over 64 mg/L.
For CC[C@H](C)[C@H](NC(=O)[C@@H](NC(=O)[C@@H]1CCCN1C(=O)[C@@H](NC(=O)[C@@H]1CCCN1C(=O)[C@H](CCCCN)NC(=O)[C@@H](N)CCCCN)C(C)C)[C@@H](C)CC)C(=O)N[C@@H](Cc1ccc(O)cc1)C(=O)N[C@@H]1C(=O)N[C@@H](CC(N)=O)C(=O)N[C@@H](CCCNC(=N)N)C(=O)N[C@@H](CCN)C(=O)N[C@@H]([C@@H](C)O)C(=O)N[C@H](CCN)C(=O)N[C@@H](CCCCN)C(=O)N[C@H](C(=O)N[C@@H](CCN)C(=O)N[C@@H](CCCNC(=N)N)C(=O)N[C@@H](Cc2ccc(O)cc2)C(=O)O)CSSC1(C)C [Compound 2] (H-KKPVPIIY[Pen]NR[Dab]T[dDab]KC[Dab]RY-OH; disulfide 9-16), the IC50 at 48 h (in vitro) was 60 µM, the “MIC E. coli ATCC 25922 Q62L mutant” value [1, 18] was 2 micrograms per milliliter and the “MIC K. pneumoniae NCTC 13443 (NDM-1) Parent” value ([3]; CLSI method, parent strain) was 0.5 micrograms per milliliter. For the same compound, the “MIC E. coli ATCC 25922 Parent” value ([5]; CLSI method, parent strain) was 0.031 micrograms per milliliter, the “MIC K. pneumoniae ATCC 43816 Parent” value ([8]; CLSI method, parent strain) was 0.125 micrograms per milliliter and the “MIC K. pneumoniae NCTC 13443 (NDM-1) Q62L mutant” value [16, 18] was over 8 micrograms per milliliter. For the same compound, the “Haemolysis % at 0.2 g/L” value (human red blood cells) was 0%, the IC50 (LptAmQ62L) was 0.0193 ± 0.0063 µM and the Ki (LptAmQ62L) was 0.0131 ± 0.0042 µM. For the same compound, the IC50 (LptAm) was 0.0126 ± 0.0007 µM and the Ki (LptAm) was 0.0021 ± 0.0001 µM.
With CNC(C)C1CCC(N)C(OC2C(N)CC(N)C(OC3OCC(C)(O)C(NC)C3O)C2O)O1 (stereo not shown) [Gentamicin, reference compound] the MIC ([1]; ATCC25922, read-out: MIC E. coli ATCC 25922 Q62L mutant) was 1 mg/L (≈ 2.09 µM), the MIC ([3]; NCTC13443, read-out: MIC K. pneumoniae NCTC 13443 (NDM-1) Parent) was over 8 mg/L and the MIC ([5]; ATCC25922, read-out: MIC E. coli ATCC 25922 Parent) was 0.5 mg/L (≈ 1.05 µM). It also gave an MIC ([8]; ATCC43816, read-out: MIC K. pneumoniae ATCC 43816 Parent) of 0.5 mg/L (≈ 1.05 µM), an MIC ([10]; ATCC43816, read-out: MIC K. pneumoniae ATCC 43816 Q62L mutant) of 0.5 mg/L (≈ 1.05 µM) and an MIC ([16]; NCTC13443, read-out: MIC K. pneumoniae NCTC 13443 (NDM-1) Q62L mutant) of over 8 mg/L. It also gave an MIC [17] of 0.5 mg/L (≈ 1.05 µM).
